Laboratory results: patent US20100273780A1, “SUBSTITUTED 8-HETEROARYL XANTHINES” (PGXHEALTH, LLC, priority 2003, published 2010)

Target: T1, rat A2B receptors (rA2B) (Rattus norvegicus, UniProt P29276)
T1 construct: expressed in transfected cells; host or cells: HEK-293 cells, stably transfected (G418 selection); membranes
T1 sequence (P29276 1-332): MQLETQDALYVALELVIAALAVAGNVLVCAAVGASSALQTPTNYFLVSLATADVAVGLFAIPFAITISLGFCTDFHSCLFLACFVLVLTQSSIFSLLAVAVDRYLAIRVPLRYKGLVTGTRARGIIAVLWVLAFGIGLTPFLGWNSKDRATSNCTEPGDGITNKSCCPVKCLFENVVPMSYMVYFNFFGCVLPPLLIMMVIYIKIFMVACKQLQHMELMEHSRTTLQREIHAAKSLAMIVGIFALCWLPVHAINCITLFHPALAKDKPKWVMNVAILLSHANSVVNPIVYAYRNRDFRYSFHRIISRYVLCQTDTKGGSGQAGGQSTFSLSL
Test: Radioligand competition binding (125I-ABOPX) at rat A2B receptors in HEK-293 membranes
Settings: displacement of specific [125I]ABOPX binding at rat A2B receptors expressed in HEK-293 cells; read-out: RatA2B Ki
Experimental: The plasmid was amplified in competent JM109 cells and plasmid DNA isolated using Wizard Megaprep columns (Promega Corporation, Madison, Wis.).
Transfected HEK cells were grown under 5% CO2/[…] humidified atmosphere at a temperature of 37° C. Colonies were selected by growth of cells in 0.6 mg/mL G418. Transfected cells were maintained in DMEM supplemented with Hams F12 nutrient mixture (1/1), 10% newborn calf serum, 2 mM glutamine and containing 50 IU/mL penicillin, […], and 0.2 mg/mL Geneticin (G418, Boehringer Mannheim). Cells were cultured in 10 cm diameter round plates and subcultured when grown confluent (approximately after 72 hours).
At A2B receptors: Confluent monolayers of HEK-A2B cells were washed with PBS followed by ice cold Buffer A (10 mM HEPES, 10 mM EDTA, pH 7.4) with protease inhibitors (10 μg/mL benzamidine, 100 μM phenylmethanesulfonyl fluoride, and 2 μg/mL of each aprotinin, pepstatin and leupeptin). The cells were homogenized in a Polytron (Brinkmann) for 20 s, centrifuged at 30,000×g, and the pellets washed twice with buffer HE (10 mM HEPES, 1 mM EDTA, pH 7.4 with protease inhibitors). The final pellet was resuspended in buffer HE, supplemented with 10% sucrose and frozen in aliquots at −80° C. For binding assays membranes were thawed and diluted 5-10 fold with HE to a final protein concentration of approximately 1 mg/mL. To determine protein concentrations, membranes, and bovine serum albumin standards were dissolved in 0.2% NaOH/0.01% SDS and protein determined using fluorescamine fluorescence. Stowell, C.
After incubation, 20 minutes at room temperature, 50 μL, of 10 mg/mL Na-metabisulfite in water was added to quench the reaction. The reaction mixture was applied to a C18 HPLC column, eluting with a mixture of methanol and 5 mM phosphate, pH 6.0. After 5 min at 35% methanol, the methanol concentration was ramped to 100% over 15 min.
Radioligand binding experiments were performed in triplicate with 20-25 μg membrane protein in a total volume of 0.1 mL HE buffer supplemented with 1 U/mL adenosine deaminase and 5 mM MgCl2. The incubation time was 3 h at 21° C. Nonspecific binding was measured in the presence of 100 μM NECA. […] Membranes were filtered on Whatman GF/C filters using a Brandel cell harvester (Gaithersburg, Md.) and washed 3 times over 15-20 seconds with ice cold buffer (10 mM Tris, 1 mM MgCl2, pH 7.4). Bmax and KD values were calculated by Marquardt's nonlinear least squares interpolation for single a site binding models. Marquardt, D. M., J. Soc. Indust. Appl. […] Ki values for different compounds were derived from IC50 values as described. Linden, J., J. Cycl. Nucl. […] Data from replicate experiments are tabulated as means±SEM.

Molecule: 1,3-Diethyl-8-[6-(N-(6-chloronicotinoyl)methylamino)-3-pyridyl]xanthine [Compound 130]
- Ki: < 100 nM

Molecule: 1,3-Diethyl-8-[6-[(N-phenylcarbamoyl)methylamino]-3-pyridyl)xanthine [Compound 61]
- Ki: < 5000 nM

Molecule: 1,3-Diethyl-8-[6-[N-(isoxazole-5-carbonyl)methylamino]-3-pyridyl)xanthine [Compound 108]
- Ki: < 500 nM

Molecule: 1,3-Diethyl-8-[6-[N-nicotinoylethylamino]-3-pyridyl)xanthine [Compound 62]
- Ki: < 500 nM

Molecule: 1,3-Dipropyl-8-[6-[N-(2-pyrazinecarbonyl)methylamino]-3-pyridyl)xanthine [Compound 109]
- Ki: < 500 nM

Molecule: 1,3-Dipropyl-8-[6-[N-(isoxazole-5-carbonyl)methylamino]-3-pyridyl)xanthine [Compound 110]
- Ki: < 500 nM

Molecule: 1,3-Dipropyl-8-[6-[N-isonicotinoylmethylamino]-3-pyridyl)xanthine [Compound 49]
- Ki: < 100 nM

Molecule: 1,3-diallyl-8-[6-(N-(6-chloronicotinoyl)methylamino)-3-pyridyl]xanthine [Compound 120]
- Ki: < 100 nM

Molecule: 1-Cyclopropyl-3-propyl-8-[6-[N-nicotinoylmethylamino]-3-pyridyl)xanthine [Compound 129]
- Ki: < 100 nM

Molecule: 1-Cyclopropylmethyl-3-ethyl-8-[6-[N-(6-chloronicotinoyl)methylamino]-3-pyridyl)xanthine [Compound 145]
- Ki: < 100 nM

Molecule: CCCn1c(=O)c2[nH]c(-c3ccc(Cl)nc3)nc2n(CCC)c1=O [Compound 1, 1,3-Dipropyl-8-(6-chloro-3-pyridyl)xanthine]
- Ki: < 500 nM

Molecule: CCCn1c(=O)c2[nH]c(-c3ccc(NCC)nc3)nc2n(CCC)c1=O [Compound 3, 1,3-Dipropyl-8-(6-ethylamino-3-pyridyl)xanthine]
- Ki: < 500 nM

Molecule: CCCn1c(=O)c2[nH]c(-c3ccc(NCCO)nc3)nc2n(CCC)c1=O [Compound 4, 1,3-Dipropyl-8-(6-(2-hydroxyethyl)amino-3-pyridyl)xanthine]
- Ki: < 500 nM

Molecule: CCCn1c(=O)c2[nH]c(-c3ccc(N4CCN(C(C)=O)CC4)nc3)nc2n(CCC)c1=O [Compound 5, 1,3-Dipropyl-8-[6-(4-acetylpiperazinyl)-3-pyridyl]xanthine]
- Ki: < 500 nM

Molecule: CCCn1c(=O)c2[nH]c(-c3ccc(N4CCCC4)nc3)nc2n(CCC)c1=O [Compound 8, 1,3-Dipropyl-8-(6-pyrrolidinylpyrid-3-yl)xanthine]
- Ki: < 500 nM

Molecule: CCCn1c(=O)c2[nH]c(-c3ccc(N4CCCN(C)CC4)nc3)nc2n(CCC)c1=O [Compound 9, 1,3-Dipropyl-8-{6-[4-methyl(perhydro-1,4-diazaepin-1-yl)]-3pyridyl}xanthine]
- Ki: < 100 nM

Molecule: CCCn1c(=O)c2[nH]c(-c3ccc(NC)nc3)nc2n(CCC)c1=O [Compound 10, 1,3-Dipropyl-8-(6-methylamino-3-pyridyl)xanthine]
- Ki: < 500 nM

Molecule: CCCn1c(=O)c2[nH]c(-c3ccc(NCC(C)O)nc3)nc2n(CCC)c1=O (stereo not drawn) [Compound 13, 1,3-Dipropyl-8-[6-(2-hydroxypropyl)amino-3-pyridyl]xanthine]
- Ki: < 500 nM

Molecule: CCCn1c(=O)c2[nH]c(-c3ccc(NCC(OC)OC)nc3)nc2n(CCC)c1=O [Compound 14, 1,3-Dipropyl-8-[6-(2,2-dimethoxyethyl)amino-3-pyridyl]xanthine]
- Ki: < 500 nM

Molecule: CCCn1c(=O)c2[nH]c(-c3ccc(NC(C)CO)nc3)nc2n(CCC)c1=O (stereo not drawn) [Compound 15, 1,3-Dipropyl-8-[6-(1-hydroxy-2-propyl)amino-3-pyridyl]xanthine]
- Ki: < 100 nM

Molecule: CCCn1c(=O)c2[nH]c(-c3ccc(N4CCOCC4)nc3)nc2n(CCC)c1=O [Compound 16, 1,3-Dipropyl-8-(6-morpholino-3-pyridyl)xanthine]
- Ki: < 100 nM

Molecule: CCCn1c(=O)c2[nH]c(-c3ccc(NCCOCCO)nc3)nc2n(CCC)c1=O [Compound 18, 1,3-Dipropyl-8-[[6-(2-hydroxyethoxy)ethylamino]-3-pyridy]xanthine]
- Ki: < 500 nM

Molecule: CCCn1c(=O)c2[nH]c(-c3ccc(N4CCNCC4)nc3)nc2n(CCC)c1=O [Compound 19, 1,3-Dipropyl-8-(6-piperazino-3-pyridyl)xanthine]
- Ki: < 500 nM

Molecule: CCCn1c(=O)c2[nH]c(-c3ccc(NCc4ccc(CN)cc4)nc3)nc2n(CCC)c1=O [Compound 21, 1,3-Dipropyl-8-[6-(4-aminomethylbenzylamino)-3-pyridyl]xanthine]
- Ki: < 500 nM

Molecule: CCCn1c(=O)c2[nH]c(-c3ccc(NC4CC4)nc3)nc2n(CCC)c1=O [Compound 23, 1,3-Dipropyl-8-(6-cyclopropylamino-3-pyridyl]xanthine]
- Ki: < 500 nM

Molecule: CCCn1c(=O)c2[nH]c(-c3ccc(NC4CCCC4)nc3)nc2n(CCC)c1=O [Compound 39, 1,3-Dipropyl-8-[6-(cyclopentylamino)-3-pyridyl]xanthine]
- Ki: < 5000 nM

Molecule: CCCn1c(=O)c2[nH]c(-c3ccc(Cl)nc3)nc2n(CCc2ccc(OC)cc2)c1=O [Compound 54, 1-propyl-3-(4-methoxyphenyl)ethyl-8-(6-chloro-3-pyridyl)xanthine]
- Ki: < 5000 nM

Molecule: CCCn1c(=O)c2[nH]c(-c3ccc(N4CCCNCC4)nc3)nc2n(CCC)c1=O [Compound 58, 1,3-Dipropyl-8-[6-(hexahydro-1,4-diazaepin-1-yl)-3-pyridyl]xanthine]
- Ki: < 100 nM

Molecule: CN(C(=O)c1cccnc1)c1ccc(-c2nc3c([nH]2)c(=O)n(CC2CC2)c(=O)n3CC2CC2)cn1 [Compound 69, 1,3-Dicylopropylmethyl-8-[6-[N-nicotinoylmethylamino]-3-pyridyl)xanthine]
- Ki: < 500 nM

Molecule: CCN(C(=O)c1cccnc1)c1ccc(-c2nc3c([nH]2)c(=O)n(CC2CC2)c(=O)n3CC2CC2)cn1 [Compound 70, 1,3-Dicylopropylmethyl-8-[6-[N-nicotinoylethylamino]-3-pyridyl)xanthine]
- Ki: < 500 nM

Molecule: CCn1c(=O)c2[nH]c(-c3ccc(NCc4ccccn4)nc3)nc2n(CC)c1=O [Compound 73, 1,3-Diethyl-8-[6-(2-pyridylmethylamino)-3-pyridyl]xanthine]
- Ki: < 100 nM

Molecule: CCn1c(=O)c2[nH]c(-c3ccc(NCc4cccnc4)nc3)nc2n(CC)c1=O [Compound 74, 1,3-Diethyl-8-[6-(3-pyridylmethylamino)-3-pyridyl]xanthine]
- Ki: < 100 nM

Molecule: CCn1c(=O)c2[nH]c(-c3ccc(NCc4cccc(OC)c4)nc3)nc2n(CC)c1=O [Compound 75, 1,3-Diethyl-8-[6-(3-methoxybenzylamino)-3-pyridyl]xanthine]
- Ki: < 100 nM

Molecule: CCCn1c(=O)c2[nH]c(-c3ccc(NCCc4ccccn4)nc3)nc2n(CCC)c1=O [Compound 78, 1,3-Dipropyl-8-[6-[2-(2-pyridyl)-ethylamino]-3-pyridyl]xanthine]
- Ki: < 100 nM

Molecule: CCn1c(=O)c2[nH]c(-c3ccc(NCCN4CCCC4)nc3)nc2n(CC)c1=O [Compound 81, 1,3-Diethyl-8-[6-[2-(1-pyrrolidinyl)-ethylamino]-3-pyridyl]xanthine]
- Ki: < 100 nM

Molecule: CCCn1c(=O)c2[nH]c(-c3ccc(NCCNC(C)=O)nc3)nc2n(CCC)c1=O [Compound 83, 1,3-Dipropyl-8-(6-(2-acetylaminoethyl)amino-3-pyridyl)xanthine]
- Ki: < 500 nM

Molecule: CCn1c(=O)c2[nH]c(-c3ccc(N(CCOC)C(=O)Nc4ccncc4)nc3)nc2n(CC)c1=O [Compound 95]
- Ki: < 500 nM

Molecule: CNc1ccc(-c2nc3c([nH]2)c(=O)n(C)c(=O)n3C)cn1 [Compound 97, 1,3-Dimethyl-8-(6-methylamino-3-pyridyl)xanthine]
- Ki: < 500 nM

Molecule: C#CCn1c(=O)c2[nH]c(-c3ccc(N(CCOC)C(=O)c4cccnc4)nc3)nc2n(C)c1=O [Compound 100, 1-Propargyl, 3-methyl-8-[6-[N-nicotinoyl, N-(2-methoxyethyl)amino]-3-pyridyl)xanthine]
- Ki: < 5000 nM
